The first assay concerns S6 Ribosomal Protein phosphorylation Ser235/236 in TSC1 null mouse embryo fibroblast (MEF) cells. The experiment in a line: Reverse protein array, S6 Ribosomal Protein phosphorylation in TSC1 null MEF cells. Particulars: 1 h, TSC1-/- MEFs, 60 minutes, read-out: p-S6. The class given is cell-based. The method in brief: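 Phospho-S6 (Ser235/236) was quantified by reverse protein array of cell lysates with a phospho-specific primary antibody. […]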
On to `CNC(=O)c1ccc(-c2ccc3ncc4c(c3c2)n(-c2cccnc2C)c(=O)n4C)cc1` [Example 2.4, N-Methyl-4-[3-methyl-1-(2-methyl-pyridin-3-yl)-2-oxo-2,3-dihydro-1H-imidazo[4,5-c]quinolin-8-yl]-benzamide], for which the IC50 turned out to be 23.1 nM.

The assay is the same for the next values; noted with them: 1 h, TSC1-/- MEFs, 60 minutes, read-out: p-S6 IC50.
For the molecule `COCc1ncc(-c2ccc3ncc4c(c3c2)n(-c2cccnc2C)c(=O)n4C)cc1OC` [Example 2.30, 8-(5-Methoxy-6-methoxymethyl-pyridin-3-yl)-3-methyl-1-(2-methyl-pyridin-3-yl)-1,3-dihydro-imidazo[4,5-c]quinolin-2-one], the IC50 was 34 nM.
As to `Cc1nc(F)ccc1-n1c(=O)n(C)c2cnc3ccc(-c4cncc(N5CCC5)c4)cc3c21` [Example 7.6, 8-(5-Azetidin-1-yl-pyridin-3-yl)-1-(6-fluoro-2-methyl-pyridin-3-yl)-3-methyl-1,3-dihydro-imidazo[4,5-c]quinolin-2-one], the IC50 turned out to be 7 nM.
With `COCc1ncc(-c2ccc3ncc4c(c3c2)n(-c2ccc(F)nc2C)c(=O)n4C)cc1OC` [Example 7.7, 1-(6-Fluoro-2-methyl-pyridin-3-yl)-8-(5-methoxy-6-methoxymethyl-pyridin-3-yl)-3-methyl-1,3-dihydro-imidazo[4,5-c]quinolin-2-one], the IC50 was 113 nM.
On the same count and under the same terms, for `COc1cc(-c2ccc3ncc4c(c3c2)n(-c2ccc(F)nc2C)c(=O)n4C)cnc1CO` [Example 7.10, 1-(6-Fluoro-2-methyl-pyridin-3-yl)-8-(6-hydroxymethyl-5-methoxy-pyridin-3-yl)-3-methyl-1,3-dihydro-imidazo[4,5-c]quinolin-2-one] the value was 15 nM.
Take `COc1ccc(-n2c(=O)n(C)c3cnc4ccc(-c5cncc(N6CCC6)c5)cc4c32)c(OC)n1` [Example 8.11, 8-(5-Azetidin-1-yl-pyridin-3-yl)-1-(2,6-dimethoxy-pyridin-3-yl)-3-methyl-1,3-dihydro-imidazo[4,5-c]quinolin-2-one]: the IC50 came out at 1 nM.
As to `COc1ccc(-n2c(=O)n(C)c3cnc4ccc(-c5cnc(C(OC)OC)c(OC)c5)cc4c32)c(OC)n1` [Example 8.13, 8-(6-Dimethoxymethyl-5-methoxy-pyridin-3-yl)-1-(2,6-dimethoxy-pyridin-3-yl)-3-methyl-1,3-dihydro-imidazo[4,5-c]quinolin-2-one], the IC50 was 15 nM.
The same measure, in the same setting: as for `COc1cc(-c2ccc3ncc4c(c3c2)n(-c2ccc(N3CCCC3)nc2C)c(=O)n4C)cnc1CO` [Example 25.4, 8-(6-Hydroxymethyl-5-methoxy-pyridin-3-yl)-3-methyl-1-(2-methyl-6-pyrrolidin-1-yl-pyridin-3-yl)-1,3-dihydro-imidazo[4,5-c]quinolin-2-one], the figure is 7 nM.
Same read-out and setting: for `Cc1nc(N2CCC(O)C2)ccc1-n1c(=O)n(C)c2cnc3ccc(-c4cncc(C(C)(C)O)c4)cc3c21` (stereo not shown) [Example 27.5, 8-[5-(1-Hydroxy-1-methyl-ethyl)-pyridin-3-yl]-1-[6-(3-hydroxy-pyrrolidin-1-yl)-2-methyl-pyridin-3-yl]-3-methyl-1,3-dihydro-imidazo[4,5-c]quinolin-2-one] the value was 33 nM; for `CNc1ncc(-c2ccc3ncc4c(c3c2)n(-c2ccc(N3CCC(OC)C3)nc2C)c(=O)n4C)cn1` (stereo not shown) [Example 28.2, 1-[6-(3-Methoxy-pyrrolidin-1-yl)-2-methyl-pyridin-3-yl]-3-methyl-8-(2-methylamino-pyrimidin-5-yl)-1,3-dihydro-imidazo[4,5-c]quinolin-2-one], 1 nM.
Same read-out and setting: as for `COc1cc(-c2ccc3ncc4c(c3c2)n(-c2ccc(N3CCC(OC)C3)nc2C)c(=O)n4C)cnc1CO` (stereo not shown) [Example 28.3, 8-(6-Hydroxymethyl-5-methoxy-pyridin-3-yl)-1-[6-(3-methoxy-pyrrolidin-1-yl)-2-methyl-pyridin-3-yl]-3-methyl-1,3-dihydro-imidazo[4,5-c]quinolin-2-one], the figure is 8 nM; as for `Cc1nc(N2CC(O)C2)ccc1-n1c(=O)n(C)c2cnc3ccc(-c4cncc(C(C)(C)O)c4)cc3c21` [Example 29.1, 1-[6-(3-Hydroxy-azetidin-1-yl)-2-methyl-pyridin-3-yl]-8-[5-(1-hydroxy-1-methyl-ethyl)-pyridin-3-yl]-3-methyl-1,3-dihydro-imidazo[4,5-c]quinolin-2-one], 15 nM.
With `CNc1ncc(-c2ccc3ncc4c(c3c2)n(-c2ccc(N3CC[C@H](O)C3)nc2C)c(=O)n4C)cc1Cl` [Example 32.4, 8-(5-Chloro-6-methylamino-pyridin-3-yl)-1-[6-((S)-3-hydroxy-pyrrolidin-1-yl)-2-methyl-pyridin-3-yl]-3-methyl-1,3-dihydro-imidazo[4,5-c]quinolin-2-one], the IC50 came out at 4 nM.
For the molecule `COc1cc(-c2ccc3ncc4c(c3c2)n(-c2ccc(N3CC[C@H](O)C3)nc2C)c(=O)n4C)cnc1CO` [Example 32.7, 8-(6-Hydroxymethyl-5-methoxy-pyridin-3-yl)-1-[6-((S)-3-hydroxy-pyrrolidin-1-yl)-2-methyl-pyridin-3-yl]-3-methyl-1,3-dihydro-imidazo[4,5-c]quinolin-2-one], the IC50 was found to be 21.4 nM.
With `CNc1ncc(-c2ccc3ncc4c(c3c2)n(-c2ccc(N3CC[C@@H](O)C3)nc2C)c(=O)n4C)cn1` [Example 34.1, 1-[6-((R)-3-Hydroxy-pyrrolidin-1-yl)-2-methyl-pyridin-3-yl]-3-methyl-8-(2-methylamino-pyrimidin-5-yl)-1,3-dihydro-imidazo[4,5-c]quinolin-2-one], the IC50 came out at 3 nM.
Same read-out and setting: as for `CCNc1cc(-c2ccc3ncc4c(c3c2)n(-c2ccc(N3CC(F)(F)C(F)(F)C3)nc2C)c(=O)n4C)cnc1CO` [Example 35.2, 8-(5-Ethylamino-6-hydroxymethyl-pyridin-3-yl)-3-methyl-1-[2-methyl-6-(3,3,4,4-tetrafluoro-pyrrolidin-1-yl)-pyridin-3-yl]-1,3-dihydro-imidazo[4,5-c]quinolin-2-one], the figure is 1 nM.

The record behind these values is patent US20100311714A1, “1H-IMIDAZO[4,5-c]QUINOLINONE COMPOUNDS” (priority 2009, published 2010).
